Data published in paper PMC3207847, “Characterization of a Novel Type of HIV-1 Particle Assembly Inhibitor Using a Quantitative Luciferase-Vpr Packaging-Based Assay” (PLoS ONE, 2011).
In brackets after ≈: the same amount, converted by molar mass. Where two headings read alike, the source gives them in different places.

Tests used:
HIV-1 VLP assembly = test: microbe, parasite or virus in culture; settings: for IC50: Human immunodeficiency virus 1, 24 h; for SI (ratio CC50:IC50): selectivity index
Protocol: Cell culture medium was then harvested at 48 h pi, subjected to the 2-step ultracentrifugation analysis, and each gradient fraction probed for Gag polyprotein and luciferase activity, as above. […] The gradient fractions corresponding to the peak of luciferase activity were pooled, and the VLP contained in these fractions were pelleted, lysed and assayed for luciferase content.
Drug treatment was maintained for a further 24 h, and VLP released in the cell culture medium were pelleted through a sucrose cushion. The amounts of extracellular VLP recovered in the 48 h-pellets obtained in the presence of the different inhibitors were determined using the luciferase assays. After normalization to the luciferase activity determined in the corresponding cell lysates, the values of the ratio of VLP-incorporated to cell-associated luciferase activity were plotted versus the drug concentrations.
Sf9 cell culture supernatants were clarified by low-speed centrifugation, then VLP recovered using a two-step procedure comprising a sucrose-step gradient centrifugation, followed by an ultracentrifugation in linear D2O-sucrose gradient, [53]. (i) In the first step, VLP contained in the cell culture medium were pelleted through a sucrose cushion (20%, w:v, in TNE buffer; TNE: 100 mM NaCl, 10 mM Tris-HCl pH 7.4, 1 mM Na2EDTA) at 30 krpm for 1 h at 15°C in a Kontron TST55.5 rotor [12]. Pelleted VLP of step (i) were then gently resuspended in PBS (0.20–0.25 ml), and (ii) further analyzed by isopycnic ultracentrifugation in sucrose-D2O gradients, [53]. Linear gradients (10-ml total volume, 30–50%, w:v) were centrifuged for 18 h at 28 krpm in a Beckman SW41 rotor. The 50% sucrose solution was made in D2O buffered to pH 7.2 with NaOH, and the 30% sucrose solution was made in 10 mM Tris-HCl, pH 7.2, 150 mM NaCl, 5.7 mM Na2EDTA. Aliquots of 0.5 ml were collected from the top, and fractions analyzed for protein content by SDS-PAGE and immunoblotting, and by luciferase assay as described below.
Aliquots of Sf9 cells (10^6) were infected with two recombinant baculoviruses at equal multiplicity of infection (MOI of 10 PFU/cell, each). One expressed the HIV-1 Gag precursor (AcMNPV-Pr55Gag or control, p6-deleted AcMNPV-GagΔp6), the other the control Vpr protein (AcMNPV-Vpr) or the LucVpr fusion (AcMNPV-LucVpr). […] To avoid any interference with a possible effect of DMSO, DMSO was kept constant in volume in the different samples. […] Cells were harvested at 48 h pi, and extracellular VLP released in the culture medium were quantitated using luciferase assay. Membrane-enveloped VLP were pelleted and resuspended in lysis KDT buffer (KDT: 0.1 M potassium phosphate buffer, pH 7.8, 1 mM DTT, containing 0.2% Triton X100) for 30 min at 37°C with vortexing every 10 min. Luciferase activity associated with VLP was measured as previously described, using a Lumat LB-9501 luminometer (Berthold Technologies, Bad Wildbad, Germany). […] To compensate for eventual negative effects of drugs on LucVpr expression, the luciferase activity was measured in the corresponding cell lysates, obtained after lysis of the pelleted cells with KDT buffer. The results were expressed as relative light units (RLU) per µg protein. The values of the ratio of VLP-associated to intracellular luciferase activity were plotted versus the inhibitor concentration.

MTT cytotoxicity assay = format: cell-based, Spodoptera frugiperda; settings: Spodoptera frugiperda, MTT assay, mean
Protocol: (§1) The cellular toxicity of the different compounds was evaluated using the MTT assays. […] The selectivity index (SI) was defined as the CC50 to IC50 ratio.

HIV-1 = settings: read-out: mean IC50, maturation cleavage of CAp24-SP1 / virus infectivity; cited from earlier work
[1] = test system: HIV-1 VLP assembly and budding; test: Electron microscopy of AcMNPV-Gag-infected Sf9 cells and released particles; format: cell-based; settings: 5 and 10 µg/ml for 24 h at 24 h pi
Protocol: By contrast, control, untreated AcMNPV-Gag-infected Sf9 cells were decorated with VLP budding in abundance from the plasma membrane ( Fig. 8 , a; and also refer to [12], [28], [30], [32], [33], [53]).
Baculovirus-infected Sf9 cells were harvested at 48 h pi, pelleted, fixed with 2.5% glutaraldehyde in 0.1 M phosphate buffer, pH 7.5, post-fixed with osmium tetroxide (2% in H2O) and treated with 0.5% tannic acid solution in H2O. The specimens were dehydrated and embedded in Epon (Epon-812; Fulham, Latham, NY). Ultrathin sections were stained with 2.6% alkaline lead citrate and 0.5% uranyl acetate in 50% ethanol, and post-stained with 0.5% uranyl acetate solution in H2O [12], [28], [53]. Grids were examined under a Jeol JEM-1400 electron microscope, equiped with an ORIUS™ digitalized camera (Gatan France, 78113-Grandchamp). For statistical EM analyses, a minimum of 30 grid squares containing 10 to 20 cell sections each were examined for counting VLP budding at the cell surface, or budding in intracellular vesicular compartment.

Sf9 cells = test: MTT cytotoxicity assay; format: cell-based, Spodoptera frugiperda
Protocol: as §1

[2] = test system: HIV-1 VLP assembly and budding; settings: cited from earlier work
[3] = test system: HIV-1 VLP assembly and budding; settings: 10 µg/ml (17 µM); AcMNPV-Gag-infected Sf9 cells; cited from earlier work
[4] = read-out: IC50 (µM), 50% inhibitory activity on VLP assembly, Sf9 cells coexpressing Pr55Gag and LucVpr, drug added at 24 h pi for 24 h, mean
[5] = read-out: IC50 (µg/ml), 50% inhibitory activity on VLP assembly, Sf9 cells coexpressing Pr55Gag and LucVpr, drug added at 24 h pi for 24 h, mean ± SEM, n = 4

Compound | IC50 (HIV-1 VLP assembly; [4]) [µM] | IC50 (HIV-1 VLP assembly; [5]) [µg/mL] | SI (ratio CC50:IC50) (HIV-1 VLP assembly) | CC50 (MTT cytotoxicity assay; Sf9 cells) [µM] | further results
C=C(C)[C@@H]1CC[C@]2(C(=O)O)CC[C@]3(C)[C@H](CC[C@@H]4[C@@]5(C)CC[C@H](O)C(C)(C)[C@@H]5CC[C@]43C)[C@@H]12 [BA, betulinic acid, reference compound] | 39.4 | 18 ± 3 | 1.1 | – | CC50 (MTT cytotoxicity assay): 43.8 µM
C=C(C)[C@@H]1CC[C@]2(C(=O)NCCN)CC[C@]3(C)C(CCC4[C@@]5(C)CC[C@H](OC(=O)CC(C)(C)C(=O)O)C(C)(C)C5CC[C@]43C)C12 (some centres unmarked) [EP-39, ethylene diamine-conjugated DSB] | – | – | – | 120 | IC50 (HIV-1): 0.016 µM
C=C(C)[C@@H]1CC[C@]2(C(=O)NC(CCCCNC(=O)OC(C)(C)C)C(=O)O)CC[C@]3(C)C(CCC4[C@@]5(C)CC[C@H](OC(=O)CC(C)(C)C(=O)O)C(C)(C)C5CC[C@]43C)C12 (some centres unmarked) [EP-47, ε-N-tert-butoxycarbonyl-lysine-conjugated DSB] | 1.9 | 1 to 2 | 13.0 | 24.7 | IC50 (µg/ml), 50% inhibitory activity on VLP assembly (HIV-1 VLP assembly; Sf9 cells coexpressing Pr55Gag and LucVpr, drug added at 24 h pi for 24 h, mean ± SEM, n = 4): 1.6 ± 0.5 µg/mL (≈ 1.97 µM); Effect on VLP assembly and budding (EM pattern) [1]: net inhibitory effect on VLP assembly and budding
C=C(C)[C@@H]1CC[C@]2(C(=O)NCCC(=O)O)CC[C@]3(C)C(CCC4[C@@]5(C)CC[C@H](OC(=O)CC(C)(C)C(=O)O)C(C)(C)C5CC[C@]43C)C12 (stereo partly drawn) [EP-48, beta-alanine-conjugated DSB] | – | – | – | 4.2 | Effect on VLP assembly (in words) (HIV-1 VLP assembly): no specific effect on VLP assembly; Cytotoxic effect (in words) (Sf9 cells): pronounced cytotoxic effect
C=C(C)[C@@H]1CC[C@]2(C(=O)NC(CCCCN)C(=O)O)CC[C@]3(C)C(CCC4[C@@]5(C)CC[C@H](OC(=O)CC(C)(C)C(=O)O)C(C)(C)C5CC[C@]43C)C12 (some centres unmarked) [EP-62, lysine-conjugated DSB with free lysine ε-NH2 group] | 4.8 | 3.4 ± 0.4 | 0.7 | 3.5 | Effect on VLP assembly (in words) (HIV-1 VLP assembly): no specific effect on VLP assembly; Cytotoxic effect (in words) (Sf9 cells): pronounced cytotoxic effect
C=C(C)[C@@H]1CC[C@]2(C(=O)O)CC[C@]3(C)[C@H](CC[C@@H]4[C@@]5(C)CC[C@H](OC(=O)CC(C)(C)C(=O)O)C(C)(C)[C@@H]5CC[C@]43C)[C@@H]12 [PA-457, 3-O-(3',3'-dimethylsuccinyl)-betulinic acid] | – | – | – | – | IC50 ([2]; immuno-radiochemical assay of VLP): 8 to 10 µM; IC50 on assembly and budding of HIV-1 VLP ([2]; insect cells expressing Pr55Gag, previous study ref 12): 5 to 6 µg/mL; Effect on VLP budding and egress [3]: totally abolished VLP budding and egress
C=C(C)[C@@H]1CC[C@]2(C(=O)NCC(=O)O)CC[C@]3(C)C(CCC4[C@@]5(C)CC[C@H](OC(=O)CC(C)(C)C(=O)O)C(C)(C)C5CC[C@]43C)C12 (some centres unmarked) [ST-327, Glycine-conjugated DSB] | 5.9 | 3.8 ± 1.6 | 5.3 | 31.1 | Effect on VLP assembly and budding (EM pattern) [1]: net inhibitory effect on VLP assembly and budding
